Patent US7786356B2, “Method for the production of calendic acid, a fatty acid containing delta 8,10,12 conjugated double bonds and related fatty acids having a modification at the delta 9 position” (E.I. du Pont de Nemours and Company, priority 1999, dated 2010)

Tested on: pigs (barrows)
Test: Belly (fat) compression test in pigs fed conjugated fatty acids
Type: in vivo, pig
Protocol: Experiments were conducted to evaluate the effects of feeding eleostearic (18:3) conjugated fatty acids on pig growth, carcass characteristics, and fat firmness. Twenty-four pigs (barrows, castrated males, from PIC genetics) with a capacity for high rates of daily lean growth and reduced back fat were randomly assigned by litter mates, weight, and block to three dietary treatments. Group one was fed normal corn feed, group two received normal corn feed supplemented with CLA, and the third group received normal corn feed supplemented with conjugated linolenic acids, i.e., ClnAs (18:3 conjugated fatty acids). Pigs were penned individually and identified by ear tattoo. […]
Live weights were recorded to determine average daily gains Phase 1 (150 to 200 lbs), and Phase 2 (200 to 250 lbs). […]
When pigs reached 250 pounds body weight they were slaughtered, processed and standard carcass measurements were collected. […] Bellies from the eight pigs in each study group were evaluated for fat firmness evaluated by measuring belly thickness before and after compression. […] Fat compression was quantified by subtracting the compressed belly thickness from the initial belly thickness. Belly thickness was measured using a micrometer. Data were analyzed as a randomized complete block design using the GLM (General Linear Model) procedure of SAS (Statistical Analysis Systems). […]

Conjugated linoleic acid [NC + CLA]
fat firmness in pigs (in words) (addition to NC diets, versus NC diet): greater fat firmness
Pork Belly Compression (initial minus compressed belly thickness, 50 lb weight for one hour, 0.50% conjugated fatty acid in diet, smaller number = greater firmness, 8 pigs per group): 28.0 mm
